The nature of this series: FK506 tissue concentrations (organ exposure) by mass spectrometry after drug delivery system implantation. The format is in vivo, Sprague-Dawley rats. The procedure: FK506 was detectable within the proximal injured sciatic nerve, DRGs (L4, L5), the entire spinal cord, and the muscles surrounding the nerve repair site, decreasing in concentration over time. FK506 content within the tissues was determined using mass spectrometry. (Mean±standard deviation, n=4).
Thirty adult female Sprague-Dawley rats were randomized into five groups (n=6). The experimental group included rats treated with fibrin gel loaded with FK506 by incorporating 10 microliters solubilized FK506 in acetonitrile (2 milligrams per milliliter), 200 micrograms solid FK506 particulates, or 5 milligrams of FK506 containing microspheres into the thrombin solution before it was mixed with fibrinogen to form a gel.
During the procedure, the sciatic nerve was exposed and the main branches were dissected. The tibial (TIB) nerve was transected 5 millimeters distal to its bifurcation from the common peroneal (CP) nerve and sural nerves with fine microsurgical scissors. The proximal TIB nerve stump was cross-sutured to the distal stump of a cut CP nerve. In the groups receiving the fibrin gel based drug delivery system, the nerve suture site was surrounded by two 40 microliters of the fibrin gels (containing applicable components for each group) formed by pipetting the fluid fibrin mixture onto a Parafilm sheet as semi-rectangular drops (˜5×5 millimeters) and placing the drops above and below the repair site. By gently opposing the drops, the delivery system was secured around the nerve. Three weeks after repair, the number of neurons that regenerated their axons were determined using retrograde labeling 7 millimeter distal to the repair site. Nerve samples at the location of retrograde labeling were collected for histomorphometric analysis. Using mass spectrometry, FK506 tissue concentrations were analyzed at the site of the injury, in sciatic nerve, dorsal root ganglia (DRGs), spinal cord, brain, heart, liver, kidney, and plasma at 7, 14, and 28 days post repair.

The mark [1] stands for this setting: first week of drug release in vivo (7 days).

As for `C=CC[C@@H]1/C=C(\C)C[C@H](C)C[C@H](OC)[C@H]2O[C@@](O)(C(=O)C(=O)N3CCCC[C@H]3C(=O)O[C@H](/C(C)=C/[C@@H]3CC[C@@H](O)[C@H](OC)C3)[C@H](C)[C@@H](O)CC1=O)[C@H](C)C[C@@H]2OC` [FK506], for the setting “at 14 days”, the “FK506 levels in sciatic nerve, gluteal muscles, spinal cord, kidney” value is recorded as “barely detectable levels” and the “FK506 within the DRGs (L4, L5)” value is on record as “accumulation”. In addition, for the setting “at 28 days”, the “FK506 within the DRGs (L4, L5)” value is “undetectable”. Moreover, the “FK506 levels in sciatic nerve, gluteal muscles, spinal cord, kidney” value (by 28 days) is “undetectable levels”. Moreover, where the note is “entire period of the treatment”, the “FK506 in contralateral sciatic nerve, contralateral gluteal muscles, contralateral L4-L5 DRGs” value is recorded as “did not contain any FK506”. The “FK506 in plasma, brain, liver, or heart” value (entire study period) was “not detectable”. Under setting [1], the “FK506 in entire spinal cord” value is “highest level”, the “FK506 in gluteal muscles surrounding the nerve” value is given as “detected” and the “FK506 in proximal injured sciatic nerve” value is “detected”.

For the origin of these results see patent US11376224B2, “System for delivery of FK506 for enhancing nerve regeneration” (THE HOSPITAL FOR SICK CHILDREN, priority 2016, dated 2022).
